The target of the experiment is KCNQ1 (IKs channel, KCNQ1 + KCNE1) (Homo sapiens, UniProt P51787). Briefly: cell-based.
Sequence of KCNQ1 (IKs channel, KCNQ1 + KCNE1) (P51787 whole entry): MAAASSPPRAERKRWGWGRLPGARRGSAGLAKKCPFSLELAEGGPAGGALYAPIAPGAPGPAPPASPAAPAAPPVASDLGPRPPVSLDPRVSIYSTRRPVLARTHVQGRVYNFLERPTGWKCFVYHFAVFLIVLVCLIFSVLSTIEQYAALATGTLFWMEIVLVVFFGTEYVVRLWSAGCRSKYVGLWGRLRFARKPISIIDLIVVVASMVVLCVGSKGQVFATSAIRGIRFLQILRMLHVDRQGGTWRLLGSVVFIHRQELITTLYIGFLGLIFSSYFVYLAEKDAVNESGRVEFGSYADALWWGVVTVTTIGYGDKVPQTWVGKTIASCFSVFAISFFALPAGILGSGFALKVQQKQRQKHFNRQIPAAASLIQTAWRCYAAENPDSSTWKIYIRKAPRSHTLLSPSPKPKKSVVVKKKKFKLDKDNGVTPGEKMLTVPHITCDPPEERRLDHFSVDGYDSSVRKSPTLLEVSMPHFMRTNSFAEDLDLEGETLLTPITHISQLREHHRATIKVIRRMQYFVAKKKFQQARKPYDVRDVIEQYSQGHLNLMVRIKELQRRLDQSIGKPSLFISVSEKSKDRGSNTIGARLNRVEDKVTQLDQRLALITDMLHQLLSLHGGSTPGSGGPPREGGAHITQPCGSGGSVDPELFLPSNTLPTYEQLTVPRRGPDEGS

A word on the IC50: it is the concentration needed to halve the response being measured. Take `CC(C)=CCC[C@](C)(O)[C@H]1CC[C@]2(C)[C@@H]1[C@H](O)C[C@@H]1[C@@]3(C)CC[C@H](O)C(C)(C)[C@@H]3[C@@H](O)C[C@]12C` [PPT, protopanaxatriol]: the IC50 is 5.18 ± 0.13 µM.
